PubChem BioAssay AID272 (DTP/NCI, 2004)
Values joined by “and” are separate entries in the source; they are usually repeats but may differ in a detail not shown here. Equal values may be shown once. Inconclusive results are not listed.

Test system: Lewis lung carcinoma i.m., BDF1 mice, T/C %
Experiment: NCI In Vivo Anticancer Drug Screen. Data for tumor model Lewis Lung Carcinoma (intramuscular) in B6D2F1 (BDF1) mice
Procedure, shortened: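 Antitumour activity is assessed in transplanted-tumour mice. Endpoint is survival or tumour size, normalised to vehicle-dosed controls (T/C).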

[1] = endpoint: mean tumor weight (est.), dose: 5.0 mg/kg/injection, schedule: Q01DX011 (ip), vehicle: saline, higher = larger tumour
[2] = endpoint: median survival time, dose: 5.0 mg/kg/injection, schedule: Q01DX011 (ip), vehicle: saline, higher = longer survival
[3] = endpoint: median survival time, dose: 0.25 mg/kg/injection, schedule: Q01DX011 (ip), vehicle: other, higher = longer survival
[4] = endpoint: median survival time, dose: 0.5 mg/kg/injection, schedule: Q01DX011 (ip), vehicle: other, higher = longer survival
[5] = endpoint: median survival time, dose: 12.5 mg/kg/injection, schedule: Q01DX011 (ip), vehicle: saline, higher = longer survival
[6] = endpoint: median survival time, dose: 2.5 mg/kg/injection, schedule: Q01DX011 (ip), vehicle: saline, higher = longer survival
[7] = endpoint: median survival time, dose: 10.0 mg/kg/injection, schedule: Q01DX011 (ip), vehicle: saline, higher = longer survival
[8] = endpoint: median survival time, dose: 4.0 mg/kg/injection, schedule: Q01DX009 (ip), vehicle: water, higher = longer survival
[9] = endpoint: median survival time, dose: 8.0 mg/kg/injection, schedule: Q01DX009 (ip), vehicle: water, higher = longer survival
[10] = endpoint: median survival time, dose: 64.0 mg/kg/injection, schedule: Q01DX009 (ip), vehicle: water, higher = longer survival
[11] = endpoint: median survival time, dose: 0.5 mg/kg/injection, schedule: Q01DX011 (ip), vehicle: saline, higher = longer survival

For `Nc1ccn(C2OC(COP(=O)(O)O)C(O)C2O)c(=O)n1` (stereo unspecified), the T/C (endpoint: mean tumor weight, dose: 19.6 mg/kg/injection, schedule: Q01DX011 (ip), vehicle: saline, higher = larger tumour) was 68 % of control, the T/C (endpoint: median survival time, dose: 19.6 mg/kg/injection, schedule: Q01DX011 (ip), vehicle: saline, higher = longer survival) was 94 % of control and 96 % of control and the T/C (endpoint: median survival time, dose: 32.6 mg/kg/injection, schedule: Q01DX011 (ip), vehicle: saline, higher = longer survival) was 43 % of control. For the same molecule, the T/C (endpoint: median survival time, dose: 54.0 mg/kg/injection, schedule: Q01DX011 (ip), vehicle: saline, higher = longer survival) was 42 % of control and the T/C (endpoint: median survival time, dose: 90.0 mg/kg/injection, schedule: Q01DX011 (ip), vehicle: saline, higher = longer survival) was 39 % of control.
With `Clc1nc2ccccc2nc1CI` the T/C [1] was 70 % of control and the T/C [2] was 100 % of control.
`COc1cccc2c1C(=O)c1c(O)c3c(c(O)c1C2=O)C[C@@](O)(C(=O)COC(=O)Cc1cccc2ccccc12)C[C@@H]3OC1CC(N)C(O)C(C)O1` (stereo partly specified) was tested, and the T/C [3] was 124 % of control, the T/C [4] was 108 % of control and the T/C (endpoint: median survival time, dose: 1.0 mg/kg/injection, schedule: Q01DX011 (ip), vehicle: other, higher = longer survival) was 113 % of control.
With `NCC(=O)c1ccc(O)c(O)c1` the T/C (endpoint: mean tumor weight (est.), dose: 100.0 mg/kg/injection, schedule: Q01DX011 (ip), vehicle: saline, higher = larger tumour) was 76 % of control, the T/C (endpoint: mean tumor weight (est.), dose: 200.0 mg/kg/injection, schedule: Q01DX011 (ip), vehicle: saline, higher = larger tumour) was 58 % of control and the T/C (endpoint: median survival time, dose: 200.0 mg/kg/injection, schedule: Q01DX011 (ip), vehicle: saline, higher = longer survival) was 96 % of control.
`CC[n+]1c(-c2ccccc2)c2cc(N)ccc2c2ccc(N)cc21` was tested, and the T/C (endpoint: median survival time, dose: 0.25 mg/kg/injection, schedule: Q01DX011 (ip), vehicle: steriod suspending solution, higher = longer survival) was 92 % of control, the T/C (endpoint: median survival time, dose: 0.5 mg/kg/injection, schedule: Q01DX011 (ip), vehicle: steriod suspending solution, higher = longer survival) was 107 % of control and the T/C (endpoint: median survival time, dose: 1.0 mg/kg/injection, schedule: Q01DX011 (ip), vehicle: steriod suspending solution, higher = longer survival) was 100 % of control. For the same molecule, the T/C (endpoint: median survival time, dose: 2.0 mg/kg/injection, schedule: Q01DX011 (ip), vehicle: steriod suspending solution, higher = longer survival) was 117 % of control, the T/C (endpoint: median survival time, dose: 4.0 mg/kg/injection, schedule: Q01DX011 (ip), vehicle: steriod suspending solution, higher = longer survival) was 96 % of control and the T/C (endpoint: median tumor weight (est.), dose: 0.25 mg/kg/injection, schedule: Q01DX011 (ip), vehicle: steriod suspending solution, higher = larger tumour) was 90 % of control. The T/C (endpoint: median tumor weight (est.), dose: 0.5 mg/kg/injection, schedule: Q01DX011 (ip), vehicle: steriod suspending solution, higher = larger tumour) was 95 % of control, the T/C (endpoint: median tumor weight (est.), dose: 1.0 mg/kg/injection, schedule: Q01DX011 (ip), vehicle: steriod suspending solution, higher = larger tumour) was 90 % of control and the T/C (endpoint: median tumor weight (est.), dose: 2.0 mg/kg/injection, schedule: Q01DX011 (ip), vehicle: steriod suspending solution, higher = larger tumour) was 77 % of control. For the same molecule, the T/C (endpoint: median tumor weight (est.), dose: 4.0 mg/kg/injection, schedule: Q01DX011 (ip), vehicle: steriod suspending solution, higher = larger tumour) was 73 % of control.
In the case of `Cc1cc[n+](CCc2ccccc2)cc1`, the T/C (endpoint: mean tumor weight (est.), dose: 12.5 mg/kg/injection, schedule: Q01DX011 (ip), vehicle: saline, higher = larger tumour) is reported as 76 % of control, the T/C (endpoint: mean tumor weight (est.), dose: 25.0 mg/kg/injection, schedule: Q01DX011 (ip), vehicle: saline, higher = larger tumour) is reported as 95 % of control and the T/C (endpoint: mean tumor weight (est.), dose: 50.0 mg/kg/injection, schedule: Q01DX011 (ip), vehicle: saline, higher = larger tumour) is reported as 75 % of control. For the same molecule, the T/C [5] was 94 % of control, the T/C (endpoint: median survival time, dose: 25.0 mg/kg/injection, schedule: Q01DX011 (ip), vehicle: saline, higher = longer survival) was 102 % of control and the T/C (endpoint: median survival time, dose: 50.0 mg/kg/injection, schedule: Q01DX011 (ip), vehicle: saline, higher = longer survival) was 106 % of control.
For `COc1ccc(C(=O)/C(Br)=C/C(=O)O)cc1`, the T/C (endpoint: mean tumor weight, dose: 40.0 mg/kg/injection, schedule: Q01DX011 (ip), vehicle: saline, higher = larger tumour) was 48 % of control.
With `CC1(C)N=C(N)N=C(N)N1c1ccc(CCCCc2ccc(Cl)cc2Cl)cc1` the T/C (endpoint: mean tumor weight, dose: 1.25 mg/kg/injection, schedule: Q01DX011 (ip), vehicle: saline, higher = larger tumour) was 65 % of control, the T/C (endpoint: mean tumor weight, dose: 2.5 mg/kg/injection, schedule: Q01DX011 (ip), vehicle: saline, higher = larger tumour) was 71 % of control and the T/C (endpoint: mean tumor weight, dose: 5.0 mg/kg/injection, schedule: Q01DX011 (ip), vehicle: saline, higher = larger tumour) was 31 % of control. The T/C (endpoint: mean tumor weight, dose: 10.0 mg/kg/injection, schedule: Q01DX011 (ip), vehicle: saline, higher = larger tumour) was 65 % of control, the T/C (endpoint: median survival time, dose: 1.25 mg/kg/injection, schedule: Q01DX011 (ip), vehicle: saline, higher = longer survival) was 110 % of control and the T/C [6] was 93 % of control. The T/C [2] was 104 % of control and the T/C [7] was 91 % of control.
With `Cc1c2c(ccc3ccccc32)c[n+]2ccccc12` the T/C (endpoint: mean tumor weight (est.), dose: 2.5 mg/kg/injection, schedule: Q01DX011 (ip), vehicle: saline, higher = larger tumour) was 60 % of control, the T/C [1] was 112 % of control and the T/C (endpoint: mean tumor weight (est.), dose: 10.0 mg/kg/injection, schedule: Q01DX011 (ip), vehicle: saline, higher = larger tumour) was 65 % of control. For the same molecule, the T/C [6] was 107 % of control, the T/C [2] was 92 % of control and the T/C [7] was 94 % of control.
With `Cc1nc(N)c(C)c(C(=O)O)n1` the T/C [8] was 110 % of control, the T/C [9] was 105 % of control and the T/C [10] was 92 % of control.
`O=C(O)CCCC1CCCCC1.[Cu+2]` was tested, and the T/C (endpoint: mean tumor weight (est.), dose: 6.25 mg/kg/injection, schedule: Q01DX011 (ip), vehicle: saline with Tween-80, higher = larger tumour) was 61 % of control.
With `CCOC(=O)C(CS)NC(=O)CCNC(C)=O` (stereo unspecified) the T/C [8] was 109 % of control, the T/C [9] was 119 % of control and the T/C (endpoint: median survival time, dose: 32.0 mg/kg/injection, schedule: Q01DX009 (ip), vehicle: water, higher = longer survival) was 113 % of control. For the same molecule, the T/C [10] was 124 % of control.
In the case of `CCCCN(CC)C(=S)S[Te](SC(=S)N(CC)CCCC)(SC(=S)N(CC)CCCC)SC(=S)N(CC)CCCC`, the T/C (endpoint: mean tumor weight (est.), dose: 100.0 mg/kg/injection, schedule: Q01DX011 (ip), vehicle: saline with Tween-80, higher = larger tumour) is reported as 72 % of control, the T/C (endpoint: mean tumor weight (est.), dose: 200.0 mg/kg/injection, schedule: Q01DX011 (ip), vehicle: saline with Tween-80, higher = larger tumour) is reported as 54 % of control and the T/C (endpoint: mean tumor weight (est.), dose: 400.0 mg/kg/injection, schedule: Q01DX011 (ip), vehicle: saline with Tween-80, higher = larger tumour) is reported as 29 % of control. The T/C (endpoint: median survival time, dose: 100.0 mg/kg/injection, schedule: Q01DX011 (ip), vehicle: saline with Tween-80, higher = longer survival) was 121 % of control, the T/C (endpoint: median survival time, dose: 200.0 mg/kg/injection, schedule: Q01DX011 (ip), vehicle: saline with Tween-80, higher = longer survival) was 114 % of control and the T/C (endpoint: median survival time, dose: 400.0 mg/kg/injection, schedule: Q01DX011 (ip), vehicle: saline with Tween-80, higher = longer survival) was 121 % of control.
In the case of `CN(C)C(=O)c1cccc(COc2ccc(N3C(N)=NC(N)=NC3(C)C)cc2Cl)c1`, the T/C (endpoint: mean tumor weight, dose: 3.13 mg/kg/injection, schedule: Q01DX011 (ip), vehicle: saline, higher = larger tumour) is reported as 66 % of control, the T/C (endpoint: mean tumor weight, dose: 12.5 mg/kg/injection, schedule: Q01DX011 (ip), vehicle: saline, higher = larger tumour) is reported as 66 % of control and the T/C (endpoint: median survival time, dose: 3.13 mg/kg/injection, schedule: Q01DX011 (ip), vehicle: saline, higher = longer survival) is reported as 103 % of control. For the same molecule, the T/C [5] was 88 % of control.
In the case of `O=c1[nH]cc(N(CCCl)CCCl)c(=O)[nH]1`, the T/C (endpoint: median survival time, dose: 0.13 mg/kg/injection, schedule: Q01DX011 (ip), vehicle: other, higher = longer survival) is reported as 104 % of control, the T/C [3] is reported as 110 % of control and the T/C [4] is reported as 102 % of control. The T/C [11] was 92 % of control.
`CCCCCCCCCCCCCCCC(=O)N(C/C=C/CN(CCCN(C)C)C(=O)CCCCCCCCCCCCCCC)CCCN(C)C` was tested, and the T/C (endpoint: mean tumor weight (est.), dose: 12.5 mg/kg/injection, schedule: Q01DX011 (ip), vehicle: saline with Tween-80, higher = larger tumour) was 44 % of control and the T/C (endpoint: median survival time, dose: 12.5 mg/kg/injection, schedule: Q01DX011 (ip), vehicle: saline with Tween-80, higher = longer survival) was 92 % of control.
With `NC(C(=O)O)C(F)(F)C(=O)O` (stereo unspecified) the T/C (endpoint: median survival time, dose: 3.12 mg/kg/injection, schedule: Q01DX011 (ip), vehicle: saline, higher = longer survival) was 109 % of control, the T/C (endpoint: median survival time, dose: 6.25 mg/kg/injection, schedule: Q01DX011 (ip), vehicle: saline, higher = longer survival) was 100 % of control and the T/C [5] was 104 % of control.
`O=C1N[C@@H]([C@H]2CC[C@H](Cl)CN2)C(=O)N[C@H]1[C@H]1CC[C@H](Cl)CN1` was tested, and the T/C (endpoint: mean tumor weight, dose: 0.5 mg/kg/injection, schedule: Q01DX011 (ip), vehicle: saline, higher = larger tumour) was 67 % of control and 92 % of control, the T/C (endpoint: mean tumor weight, dose: 1.0 mg/kg/injection, schedule: Q01DX011 (ip), vehicle: saline, higher = larger tumour) was 65 % of control and 87 % of control and the T/C (endpoint: mean tumor weight, dose: 2.0 mg/kg/injection, schedule: Q01DX011 (ip), vehicle: saline, higher = larger tumour) was 42 % of control and 64 % of control. The T/C [11] was 105 % of control and 116 % of control and the T/C (endpoint: median survival time, dose: 1.0 mg/kg/injection, schedule: Q01DX011 (ip), vehicle: saline, higher = longer survival) was 95 % of control and 119 % of control.
